One block for each molecule: values may come before it.
Assays:
[1] = test system: FTC_1_Full (DNA, aptamer) GGAGGCTCTCGGGACGACGCTGAGTCGTTGGCAAGGTATTGAGAGAGTGTCGTCCCGATGCTGCAATCGTAA; assay: ITC; conditions: Na+ (PBS), Mg2+ 2 mM, 25 °C, 20 µM aptamer in cell; for binding: 200 µM compound in syringe
[2] = test system: FTC_1_EAB (FTC_1_5'trunc19_3'trunc25), unlabelled (DNA, aptamer) CTGAGTCGTTGGCAAGGTATTGAGAGAG; assay: ITC; conditions: Na+ (PBS), Mg2+ 2 mM, 25 °C, 20 µM aptamer in cell; for binding: 200 µM compound in syringe
[3] = test system: FTC_1_EAB, E-AB sensor (DNA, aptamer) CTGAGTCGTTGGCAAGGTATTGAGAGAG; assay: electrochemical aptamer-based sensor (square wave voltammetry); conditions: for binding: negligible signal 100 nM to 10 µM
[4] = test system: FTC_2_Full (DNA, aptamer) GGAGGCTCTCGGGACGACCATGAGTCGTTGGTAAGGTATTAGGAAGCGGTCGTCCCGATGCTGCAATCGTAA; assay: ITC; conditions: Na+ (PBS), Mg2+ 2 mM, 25 °C, 20 µM aptamer in cell, 200 µM FTC in syringe
[5] = test system: FTC_5_Full (DNA, aptamer) GGAGGCTCTCGGGACGACGGCAAGTCGTTGGTAAGGTATTAATCTGGTGTCGTCCCGATGCTGCAATCGTAA; assay: ITC; conditions: Na+ (PBS), Mg2+ 2 mM, 25 °C, 20 µM aptamer in cell, 200 µM FTC in syringe
[6] = test system: FTC_1_EAB_Scramble (DNA, other) GATATGGGAGAACGCATTGCGTGGTATG; assay: not stated (ITC series, Figure S7)
[7] = test system: FTC_1_Fluor (FTC_1_5'trunc3_3'trunc14) (DNA, aptamer) GGCTCTCGGGACGACGCTGAGTCGTTGGCAAGGTATTGAGAGAGTGTCGTCCCGA; assay: fluorescence, quencher strand displacement; conditions: Na+ (PBS), Mg2+ about 1 mM; 50% human plasma; Q-Cap_1 (3'-BHQ2) displaced; 100 nM aptamer, 150 nM Q-Cap_1; apparent
[8] = biological target: bovine serum albumin (BSA) (UniProt P02769 25-607); assay: ITC; heat change at mole ratios <0.1; BSA as ligand; ITC: PBS + 2 mM MgCl2 (SELEX buffer pH 7.2); general ITC protocol 20 uM aptamer in cell, 200 uM target in syringe; temperature not given; conditions: protein: commercial; stem-loop, stem S1 13 bp
Sequence of bovine serum albumin (BSA) (P02769 25-607): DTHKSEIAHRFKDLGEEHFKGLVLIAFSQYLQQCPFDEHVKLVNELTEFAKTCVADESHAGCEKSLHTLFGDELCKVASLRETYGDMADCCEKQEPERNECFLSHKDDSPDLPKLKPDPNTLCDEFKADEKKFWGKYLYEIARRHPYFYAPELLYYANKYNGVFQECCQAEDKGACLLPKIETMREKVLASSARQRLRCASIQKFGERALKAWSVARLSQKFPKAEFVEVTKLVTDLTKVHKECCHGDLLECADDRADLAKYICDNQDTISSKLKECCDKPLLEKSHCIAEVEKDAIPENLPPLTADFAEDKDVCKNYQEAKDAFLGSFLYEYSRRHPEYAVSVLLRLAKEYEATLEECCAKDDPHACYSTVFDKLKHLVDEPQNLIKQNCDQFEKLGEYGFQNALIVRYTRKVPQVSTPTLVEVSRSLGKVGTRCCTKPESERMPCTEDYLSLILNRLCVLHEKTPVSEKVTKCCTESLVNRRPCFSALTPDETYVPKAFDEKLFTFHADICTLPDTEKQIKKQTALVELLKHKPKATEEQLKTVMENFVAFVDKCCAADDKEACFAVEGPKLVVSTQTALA

- binding [1]: no
- binding [2]: no
Molecule: Nc1nc(=O)n([C@@H]2O[C@H](CO)[C@@H](O)[C@H]2O)cc1F

- binding ([3]; binding above 10 µM, gain 50% lower than FTC): weak
Molecule: Nc1ccn([C@@H]2CS[C@H](CO)O2)c(=O)n1

- dissociation constant ([1]; 200 µM FTC in syringe): 150 ± 40 nM
- Kd ([2]; 200 µM FTC in syringe): 10.9 ± 0.3 µM
- binding [4]: yes
- binding [5]: yes
- binding [6]: no
- EC50 [7]: 3.536 ± 0.069 µM
- EC50 ([3]; Na+ (PBS), phosphate-buffered saline, gold electrode, Hill coefficient 1, apparent): 10.4 ± 0.6 µM
Molecule: Nc1nc(=O)n([C@@H]2CS[C@H](CO)O2)cc1F

- binding [1]: no
- binding ([3]; minimal binding at saturation): weak
Molecule: Nc1nc(=O)n([C@@H]2CS[C@H](COP(=O)(O)OP(=O)(O)OP(=O)(O)O)O2)cc1F

- binding [1]: no
- binding [2]: no
Molecule: Nc1cc[nH]c(=O)n1

- binding [1]: no
- binding [2]: no
Molecule: Nc1ccn([C@@H]2O[C@H](CO)[C@@H](O)[C@H]2O)c(=O)n1

B1: FTC_1 (taken as FTC_1_Full) (structured_DNA)
DNA: GGAGGCTCTCGGGACGACGCTGAGTCGTTGGCAAGGTATTGAGAGAGTGTCGTCCCGATGCTGCAATCGTAA
- binding result [8]: binds
